Results: PMC11198769, “Enhancement of transcription efficiency by TAR-Tat system increases the functional expression of human olfactory receptors” (PLOS ONE, 2024)

How the values were obtained:
Test in all cases: Comprehensive analysis (screening) of hORs against n-hexanal
Format in all cases: cell-based
OR5P3 = biological target: T1, OR5P3 (Homo sapiens, UniProt Q8WZ94); conditions: OR5P3, 500 μM n-hexanal, n = 1
T1 construct: Lucy tag (N); FLAG (N); Rho tag (N); expressed in transfected cells; host or cells: Flp-In T-REx-293 cells stably expressing RTP1S, Gαolf and Ric8-b
T1 sequence (Q8WZ94 1-311): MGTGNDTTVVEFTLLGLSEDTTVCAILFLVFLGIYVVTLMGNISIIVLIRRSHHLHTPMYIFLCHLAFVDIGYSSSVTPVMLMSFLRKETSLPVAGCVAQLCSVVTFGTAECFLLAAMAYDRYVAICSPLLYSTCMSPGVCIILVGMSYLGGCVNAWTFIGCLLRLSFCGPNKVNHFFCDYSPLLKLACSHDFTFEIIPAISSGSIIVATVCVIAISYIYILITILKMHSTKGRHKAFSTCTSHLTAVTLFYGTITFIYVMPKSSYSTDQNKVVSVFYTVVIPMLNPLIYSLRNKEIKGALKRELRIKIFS
Protocol: (§1) Transfection was performed as described in the “hOR assay,” but 12.5 ng of 379 hOR plasmids (hOR/pBApo and hOR/pHEK) was transfected with the 12.5 ng pGlosensor^TM-22F cAMP biosensor plasmid (Promega) in 384 plates per well. After loading the GloSensor cAMP substrate and preincubation, the assay buffer was added (30 μL/well). After 10 min of equilibration, luminescence was measured (L0). Then, 50 mM n-hexanal, which was diluted with 10% DMSO/assay buffer, was added (4.7 μL/well). After 9 min, luminescence was measured (L9min). All the L9min values were subtracted by the L0 value (ΔL).

OR8B3 = biological target: T2, OR8B3 (Homo sapiens, UniProt Q8NGG8); conditions: OR8B3, 500 μM n-hexanal, with the TAR-Tat system (hOR/pHEK), n = 1
T2 construct: Lucy tag (N); FLAG (N); Rho tag (N); expressed in transfected cells; host or cells: Flp-In T-REx-293 cells stably expressing RTP1S, Gαolf and Ric8-b
T2 sequence (Q8NGG8 1-313): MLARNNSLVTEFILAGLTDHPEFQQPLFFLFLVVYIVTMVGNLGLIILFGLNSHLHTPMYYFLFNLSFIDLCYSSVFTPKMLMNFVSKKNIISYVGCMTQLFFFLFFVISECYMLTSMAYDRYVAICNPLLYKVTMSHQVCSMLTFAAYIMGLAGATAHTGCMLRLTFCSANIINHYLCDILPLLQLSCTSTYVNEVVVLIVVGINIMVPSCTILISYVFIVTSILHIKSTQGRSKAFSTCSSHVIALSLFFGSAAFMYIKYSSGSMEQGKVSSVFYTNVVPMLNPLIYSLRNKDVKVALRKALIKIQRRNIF
Protocol: as §1

OR52N4 = biological target: T3, OR52N4 (Homo sapiens, UniProt Q8NGI2); conditions: OR52N4, 500 μM n-hexanal, with the TAR-Tat system (hOR/pHEK), n = 1
T3 construct: Lucy tag (N); expressed in transfected cells; host or cells: Flp-In T-REx-293 cells stably expressing RTP1S, Gαolf and Ric8-b
T3 sequence (Q8NGI2 1-321): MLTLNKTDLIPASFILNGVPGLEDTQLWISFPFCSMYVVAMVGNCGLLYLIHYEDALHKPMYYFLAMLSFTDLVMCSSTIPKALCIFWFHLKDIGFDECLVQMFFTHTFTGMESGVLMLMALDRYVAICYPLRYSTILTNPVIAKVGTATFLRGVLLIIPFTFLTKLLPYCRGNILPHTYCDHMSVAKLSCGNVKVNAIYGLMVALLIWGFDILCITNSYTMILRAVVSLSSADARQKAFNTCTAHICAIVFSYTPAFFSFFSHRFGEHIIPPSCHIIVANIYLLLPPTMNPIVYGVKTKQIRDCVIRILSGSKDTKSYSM
Protocol: as §1

OR10C1 = biological target: T4, OR10C1 (Homo sapiens, UniProt Q96KK4); conditions: OR10C1, 500 μM n-hexanal, with the TAR-Tat system (hOR/pHEK), n = 1
T4 construct: Lucy tag (N); expressed in transfected cells; host or cells: Flp-In T-REx-293 cells stably expressing RTP1S, Gαolf and Ric8-b
T4 sequence (Q96KK4 1-312): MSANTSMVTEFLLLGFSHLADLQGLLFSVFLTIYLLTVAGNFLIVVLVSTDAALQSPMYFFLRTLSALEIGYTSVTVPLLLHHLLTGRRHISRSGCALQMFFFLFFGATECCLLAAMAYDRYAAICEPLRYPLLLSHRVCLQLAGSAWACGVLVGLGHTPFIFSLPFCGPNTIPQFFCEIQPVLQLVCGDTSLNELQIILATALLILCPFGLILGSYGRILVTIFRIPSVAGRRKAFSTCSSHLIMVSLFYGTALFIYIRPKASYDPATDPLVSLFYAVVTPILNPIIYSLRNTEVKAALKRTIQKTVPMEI
Protocol: as §1

OR5M3 = biological target: T5, OR5M3 (Homo sapiens, UniProt Q8NGP4); conditions: OR5M3, 500 μM n-hexanal, with the TAR-Tat system (hOR/pHEK), n = 1
T5 construct: Lucy tag (N); FLAG (N); Rho tag (N); expressed in transfected cells; host or cells: Flp-In T-REx-293 cells stably expressing RTP1S, Gαolf and Ric8-b
T5 sequence (Q8NGP4 1-307): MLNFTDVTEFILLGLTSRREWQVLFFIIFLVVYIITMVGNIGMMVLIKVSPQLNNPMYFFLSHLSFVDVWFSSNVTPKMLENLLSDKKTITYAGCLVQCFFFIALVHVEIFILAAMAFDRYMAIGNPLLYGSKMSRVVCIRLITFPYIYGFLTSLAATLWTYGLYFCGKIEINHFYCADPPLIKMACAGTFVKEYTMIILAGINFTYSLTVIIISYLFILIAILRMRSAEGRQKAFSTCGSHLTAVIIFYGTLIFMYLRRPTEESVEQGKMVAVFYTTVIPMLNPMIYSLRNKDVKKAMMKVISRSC
Protocol: as §1

OR2M3 = biological target: T6, OR2M3 (Homo sapiens, UniProt Q8NG83); conditions: OR2M3, 500 μM n-hexanal, with the TAR-Tat system (hOR/pHEK), n = 1
T6 construct: Lucy tag (N); expressed in transfected cells; host or cells: Flp-In T-REx-293 cells stably expressing RTP1S, Gαolf and Ric8-b
T6 sequence (Q8NG83 1-312): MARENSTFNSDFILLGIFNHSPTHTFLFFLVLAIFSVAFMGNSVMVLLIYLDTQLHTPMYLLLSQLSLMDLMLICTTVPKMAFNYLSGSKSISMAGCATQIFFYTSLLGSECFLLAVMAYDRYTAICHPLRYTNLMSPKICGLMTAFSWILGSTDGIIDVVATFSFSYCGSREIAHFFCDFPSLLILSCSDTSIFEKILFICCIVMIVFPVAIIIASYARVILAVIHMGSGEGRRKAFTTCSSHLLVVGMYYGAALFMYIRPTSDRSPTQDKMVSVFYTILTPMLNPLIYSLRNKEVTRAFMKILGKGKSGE
Protocol: as §1

Which “response value (ΔL)” value (OR5P3; with the TAR-Tat system (hOR/pHEK)) does the source give for `CCCCCC=O` [n-hexanal] here?
The value was 2931.

And the “response value (ΔL)” value (OR5P3; without the TAR-Tat system (control plasmid))?
The value was 740.

What about the “response value (ΔL)” value (OR8B3) of the same molecule?
Its value is greater than 500.

What about the “response value (ΔL)” value (OR52N4) of the same molecule?
Its value is greater than 500.

And the “response value (ΔL)” value (OR10C1)?
Its value is greater than 500.

And the “response value (ΔL)” value (OR5M3)?
Its value is greater than 500.

And the “response value (ΔL)” value (OR2M3)?
The value was −620.
